Measurements as given in US20210330611A1, “THERAPY FOR NEUROLOGICAL DISEASES/DISORDERS” (priority 2020, published 2021).
Values joined by “and” are separate entries in the source; they are usually repeats but may differ in a detail not shown here. Identical values can stand only once. Counter-ions that a name gives are not always drawn. Like-named read-outs stand apart in the source and are kept apart here. Where no end group is shown, it is not given here.

Assays:
[1] = test system: fibrin-induced microglia activation; assay: Image-based assay of fibrin-induced microglia activation (HTS and dose response); format: cell-based, rat; details: for inhibition at 10 µM: Rattus norvegicus, Microglia, read-out: Fibrin % inhibition; for IC50: read-out: Fibrin IC50
[2] = test system: LPS-induced microglia activation; assay: Image-based assay of LPS-induced microglia activation (HTS and dose response); format: cell-based, rat
[3] = test system: primary rat microglia
[4] = test system: fibrin- and LPS-induced microglia activation; assay: cells; format: cell-based, rat
[5] = test system: primary rat microglia; remark: listed apart in the source
[6] = test system: primary rat microglia; assay: Cell toxicity (dead cells, size <150 μm2) in LPS assay; details: primary microglia HTS
[7] = test system: primary rat microglia; assay: Cell toxicity (dead cells, size <150 μm2) in coated fibrin (cFib) assay; details: primary microglia HTS;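 note: share of dead cells sized under 150 µm2 at 10 µM in fibrin-stimulated microglia HTS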
[8] = primary microglia HTS, fibrin stimulation, increased cell size (>800 μm^2) as marker of activation
[9] = primary microglia HTS, LPS stimulation; increased cell size (>800 μm^2) as marker of activation
[10] = Rattus norvegicus, Microglia, read-out: LPS % inhibition
[11] = primary microglia HTS, LPS stimulation, compounds at 10 μM; 10 µM
[12] = classification by fibrin and LPS inhibition, HTS at 10 μM
[13] = primary microglia HTS, fibrin stimulation, compounds at 10 μM
[14] = Rattus norvegicus, Microglia, 48 h, primary microglia HTS, LPS stimulation; increased cell size (>800 μm^2) as marker of activation; read-out: LPS % inhibition
[15] = Rattus norvegicus, Microglia, primary microglia HTS, LPS stimulation, compounds at 10 μM; read-out: LPS % inhibition
[16] = LPS stimulation, decreased size (<150 μm^2) as marker of toxicity
[17] = quadrant by fibrin and LPS inhibition in HTS of 1907 compounds
[18] = fibrin stimulation, decreased size (<150 μm^2) as marker of toxicity
[19] = Rattus norvegicus, Microglia, 48 h, read-out: LPS % inhibition
[20] = primary microglia HTS, fibrin stimulation, cell size >800 μm2 as marker of activation
[21] = Rattus norvegicus, Microglia, 48 h; read-out: LPS % inhibition
[22] = classification by fibrin and LPS inhibition in HTS
[23] = primary microglia HTS, 10 μM, fibrin-stimulated, cell size >800 μm^2 as marker of activation
[24] = primary microglia HTS, 10 μM, LPS-stimulated, cell size >800 μm^2 as marker of activation
[25] = 10 μM, LPS assay, cell size <150 μm^2 as marker of toxicity
[26] = HTS of 1907 compounds, quadrant by fibrin and LPS inhibition
[27] = 10 μM, fibrin assay, cell size <150 μm^2 as marker of toxicity

Compound: CN(Cc1cnc2nc(N)nc(N)c2n1)c1ccc(C(=O)N[C@@H](CCC(=O)O)C(=O)O)cc1 (racemic) [Methotrexate(+/−)]
- Fibrin % inhibition [1, 8]: 0%
- LPS % inhibition [2, 9]: 0%
- Fibrin % cell toxicity [3]: 0%

Compound: CC1(C)S[C@@H]2[C@H](NC(=O)[C@H](N)c3ccc(O)cc3)C(=O)N2[C@H]1C(=O)O [Amoxicillin]
- inhibition at 10 µM [1]: -14%
- inhibition at 10 µM [2, 10]: 12%
- Fibrin % cell toxicity ([3]; rat): 0%
- Quadrant (FIG. 5b) [4]: Q4

Compound: CCCCCCCCCCCCCCCC[n+]1ccccc1 [Cetylpyridinium Bromide]
- LPS % cell toxicity ([5]; rat): 39%
- Fibrin % cell toxicity ([3]; rat): 25%
- Quadrant (FIG. 5b) [4]: Q2

Compound: C(=C\c1ccccc1)/CN1CCN(C(c2ccccc2)c2ccccc2)CC1 [Cinnarizine]
- LPS % cell toxicity ([5]; rat): 0%
- Fibrin % cell toxicity ([3]; rat): 1%
- Quadrant (FIG. 5b) [4]: Q4

Compound: Nc1nc(Cl)nc2c1ncn2[C@@H]1O[C@H](CO)[C@@H](O)[C@@H]1F [Clofarabine]
- LPS % inhibition ([2]; primary HTS, 10 μM, LPS-stimulated primary microglia): −2% and 8%
- Fibrin % cell toxicity ([3]; rat): 1%
- Quadrant (FIG. 5b) ([4]; primary HTS, 10 μM): Q4

Compound: CC(=O)O[C@]1(C(C)=O)CC[C@H]2[C@@H]3C=C(Cl)C4=CC(=O)[C@@H]5C[C@@H]5[C@]4(C)[C@H]3CC[C@@]21C [Cyproterone Acetate]
- LPS % inhibition [2, 11]: 12% and 3%
- Fibrin % cell toxicity ([3]; rat): 1%
- Quadrant (FIG. 5b) [4, 12]: Q4

Compound: C#C[C@]1(O)CC[C@H]2[C@@H]3CCC4=Cc5oncc5C[C@]4(C)[C@H]3CC[C@@]21C [Danazol]
- inhibition at 10 µM [1, 13]: -14%
- inhibition at 10 µM [1, 8]: 105%
- LPS % cell toxicity ([5]; rat): 0%
- inhibition at 10 µM [2, 14]: 99%
- inhibition at 10 µM [2, 15]: 5%
- LPS % cell toxicity [6, 16]: 14%
- Quadrant (FIG. 5b) [4, 12]: Q4
- Quadrant (FIG. 5b) [4, 17]: Q2
- Fibrin % cell toxicity ([7]; fibrin assay, dead cells (size <150 μm2), compounds at 10 μM): 1%
- Fibrin % cell toxicity [7, 18]: 28%

Compound: NC(=O)C(c1ccccc1)(c1ccccc1)[C@@H]1CCN(CCc2ccc3c(c2)CCO3)C1 [Darifenacin Hydrobromide]
- LPS % cell toxicity ([5]; rat): 0%
- Fibrin % cell toxicity ([3]; rat): 1%

Compound: C[C@@H]1C[C@H]2[C@@H]3CCC4=CC(=O)C=C[C@]4(C)[C@@]3(F)[C@@H](O)C[C@]2(C)[C@@]1(O)C(=O)COP(=O)(O)O [Dexamethasone Phosphate]
- LPS % cell toxicity ([5]; rat): 2%
- Fibrin % cell toxicity ([3]; rat): 5%
- Quadrant (FIG. 5b) [4, 17]: Q2

Compound: Cn1c(=O)c2c(ncn2CC2OCCO2)n(C)c1=O [Doxofylline]
- inhibition at 10 µM [1, 13]: -42%
- inhibition at 10 µM [2, 15]: 18%
- Fibrin % cell toxicity ([3]; rat): 0%
- Quadrant (FIG. 5b) [4, 12]: Q4

Compound: O=C(O)CN(CCN(CC(=O)O)CC(=O)O)CC(=O)O [Edetic Acid]
- Fibrin % cell toxicity ([3]; rat): 0%
- Quadrant (FIG. 5b) [4]: Q4

Compound: C[C@]12CC[C@@H]3c4ccc(O)cc4CC[C@H]3[C@@H]1CCC2=O [Estrone]
- inhibition at 10 µM [1, 13]: 35%
- inhibition at 10 µM [1, 8]: 106%
- LPS % cell toxicity ([5]; rat): 0%
- inhibition at 10 µM [2, 14]: 106%
- inhibition at 10 µM [2, 15]: 16%
- LPS % cell toxicity [6, 16]: 25%
- Quadrant (FIG. 5b) [4, 12]: Q4
- Quadrant (FIG. 5b) [4, 17]: Q2

Compound: C=C1C[C@@H]2[C@H](CC[C@]3(C)C(=O)CC[C@@H]23)[C@@]2(C)C=CC(=O)C=C12 [Exemestane]
- inhibition at 10 µM [1, 13]: 22%
- Fibrin % inhibition ([1]; primary microglia HTS, fibrin stimulation, compounds at 10 μM, 10 µM): 31%
- inhibition at 10 µM [2, 15]: 21%
- LPS % inhibition [2, 11]: 34%
- Fibrin % cell toxicity ([3]; rat): 1%
- Quadrant (FIG. 5b) [4, 12]: Q4

Compound: O=c1[nH]c(=O)n([C@H]2C[C@H](O)[C@@H](CO)O2)cc1I [Idoxuridine]
- Fibrin % cell toxicity ([3]; rat): 1%
- Quadrant (FIG. 5b) [4, 17]: Q4

Compound: CCC(C)n1ncn(-c2ccc(N3CCN(c4ccc(OCC5COC(Cn6cncn6)(c6ccc(Cl)cc6Cl)O5)cc4)CC3)cc2)c1=O (centres unmarked) [Itraconazole]
- Fibrin % cell toxicity ([3]; rat): 1%
- Quadrant (FIG. 5b) [4, 17]: Q4

Compound: CC[C@H](C)C(=O)O[C@H]1C[C@@H](C)C=C2C=C[C@H](C)[C@H](CC[C@@H]3C[C@@H](O)CC(=O)O3)[C@H]21 [Lovastatin]
- inhibition at 10 µM [1]: 106%
- inhibition at 10 µM [2, 19]: 87%
- Fibrin % cell toxicity ([3]; rat): 3%
- Quadrant (FIG. 5b) [4]: Q2

Compound: C#C[C@]1(O)CC[C@H]2[C@@H]3CCC4=CC(=O)CC[C@@H]4[C@H]3CC[C@@]21C [Norethindrone]
- inhibition at 10 µM [1]: 9%
- LPS % inhibition [2]: 15%
- Fibrin % cell toxicity ([3]; rat): 0%
- Quadrant (FIG. 5b) [4]: Q4

Compound: C#C[C@]1(O)CC[C@H]2[C@@H]3CCC4=CC(=O)CC[C@@H]4[C@H]3CC[C@@]21C [Norethisterone]
- Fibrin % inhibition [1]: 18%
- LPS % inhibition [2]: 1%
- Fibrin % cell toxicity ([3]; rat): 1%
- Quadrant (FIG. 5b) [4]: Q4

Compound: CCCCCCCCCCC[C@@H](C[C@@H]1OC(=O)[C@H]1CCCCCC)OC(=O)[C@H](CC(C)C)NC=O [Orlistat]
- inhibition at 10 µM [1, 8]: 17%
- Fibrin % cell toxicity ([3]; rat): 1%
- Quadrant (FIG. 5b) [4, 17]: Q4

Compound: [H]/N=C(/N)N/C(=N/[H])NCCc1ccccc1 [Phenformin]
- inhibition at 10 µM [1]: -30%
- inhibition at 10 µM [2, 19]: 13%
- Fibrin % cell toxicity ([3]; rat): 1%
- Quadrant (FIG. 5b) [4]: Q4

Compound: CC(=O)[O-].[Hg+][c]1ccccc1 [Phenylmercuric Acetate]
- LPS % cell toxicity ([5]; rat): 80%
- Fibrin % cell toxicity ([3]; rat): 82%

Compound: CC(=O)c1ccc2c(c1)N(CCCN1CCC(CCO)CC1)c1ccccc1S2 [Piperacetazine]
- inhibition at 10 µM [1, 20]: -32%
- inhibition at 10 µM [2, 21]: 48%
- Fibrin % cell toxicity ([3]; rat): 0%
- Quadrant (FIG. 5b) [4, 22]: Q4

Compound: CCC1(c2ccccc2)C(=O)NCNC1=O [Primidone]
- inhibition at 10 µM [1]: -15%
- inhibition at 10 µM [2, 19]: 12%
- Fibrin % cell toxicity ([3]; rat): 1%
- Quadrant (FIG. 5b) [4]: Q4

Compound: O=C(O)c1ccccc1O [Salicylic Acid]
- inhibition at 10 µM [1, 20]: -32%
- inhibition at 10 µM [2, 21]: 14%
- Fibrin % cell toxicity ([3]; rat): 0%
- Quadrant (FIG. 5b) [4, 22]: Q4

Compound: Clc1ccc(C(Cn2ccnc2)OCc2ccsc2Cl)c(Cl)c1 (centres unmarked) [Tioconazole]
- LPS % inhibition ([2]; 10 µM): 8%
- inhibition at 10 µM [2, 10]: 12%
- Fibrin % cell toxicity ([3]; rat): 1%
- Quadrant (FIG. 5b) [4]: Q4

Compound: Pyrethrins
- LPS % cell toxicity [5]: 0%
- Fibrin % cell toxicity [3]: 0%

Compound: RKDVY [Thymopentin]
- Fibrin % inhibition [1, 23]: −20%
- LPS % inhibition [2, 24]: 20%
- LPS % cell toxicity [6, 25]: 0%
- Quadrant (FIG. 5b) [4, 26]: Q4
- Fibrin % cell toxicity [7, 27]: 1%

Compound: Sucralfate
- Fibrin % inhibition [1, 23]: −35%
- LPS % inhibition [2, 24]: 22%
- LPS % cell toxicity [6, 25]: 0%
- Quadrant (FIG. 5b) [4, 26]: Q4
- Fibrin % cell toxicity [7, 27]: 1%

Compound: Tyloxapol
- Fibrin % inhibition [1, 23]: −1%
- LPS % inhibition [2, 24]: 17%
- LPS % cell toxicity [6, 25]: 0%
- Quadrant (FIG. 5b) [4, 26]: Q4
- Fibrin % cell toxicity [7, 27]: 1%

Compound: Tyrothricin [reference compound]
- IC50 ([1]; Table 1, dose response 0.001-20 μM, triplicates, primary rat microglia, 48 h): 3000 nM
- IC50 ([1]; dose response, fibrin-induced microglia activation): 3000 nM
- Fibrin % inhibition [1, 8]: 89%
- IC50 ([2]; Table 1; dose response 0.001-20 μM, triplicates, primary rat microglia, 48 h; read-out: LPS IC50): 500 nM
- IC50 ([2]; dose response, LPS-induced microglia activation; read-out: LPS IC50): 500 nM
- LPS % inhibition [2, 9]: 102%
- LPS % cell toxicity [6, 16]: 2%
- Hit ([4]; HTS hit classification): HIT (Hits were defined as molecules that exhibited greater than 50% inhibition of either fibrin or LPS activation)
- Quadrant (FIG. 5b) ([4]; Table 1, screen at 10 μM): Q2
- Quadrant (FIG. 5b) [4, 17]: Q2
- Fibrin % cell toxicity [7, 18]: 2%

Compound: Viomycin Sulfate
- Fibrin % inhibition [1, 23]: −7%
- LPS % inhibition [2, 24]: 19%
- LPS % cell toxicity [6, 25]: 0%
- Quadrant (FIG. 5b) [4, 26]: Q4
- Fibrin % cell toxicity [7, 27]: 0%
